Test: Solubility of lactide in different solvents
Type: physicochemical

solubility of lactide in ethanol (ethanol as first solvent, temperature maintained at 20 °C): ≤ 10 wt %
solubility of lactide in γ-butyrolactone (in words) (solvent γ-butyrolactone, no solid crystal formed in condenser at 5 °C): high solubility
SMILES: CC1OC(=O)C(C)OC1=O (centres unmarked) [lactide]

Source: patent publication US10253012B2, “Method and apparatus for preparation of lactide using lactide purification process” (priority 2015, dated 2019)
